Laboratory results taken from patent publication US12465791B2, “Oral care composition” (Colgate-Palmolive Company, priority 2014, dated 2025).

Assays:
[1] = test system: HSP 27; assay: HSP 27 production in scratched (damaged) human gingival tissue, level in cell supernatant; type: cell-based; details: for HSP27 concentration: scratched gingival tissue, arginine 50 ppm in culture medium, 37° C.
Protocol: A scratching protocol was used to damage and stress human gingival tissue (MatTek Corporation). Arginine, at a dose of 50 ppm was applied to the culture medium containing the tissue. The treated tissue was incubated at 37° C. to promote tissue healing. Cell supernatant was collected at various time points and the level of HSP 27 was measured.

[2] = test system: Human keratinocytes; assay: Gap closure after scratch, migration of human keratinocytes; type: cell-based; details: 100 ppm Arginine in DMEM
Protocol: Human keratinocytes are cultured in DMEM medium supplemented with 10% FBS and 1% of antibiotic at 37° C. under a 5% CO2 atmosphere in petri dishes. Once the cells are 80-90% confluent, a scratch is made horizontally and a scratch is made vertically across the layer of cells. 1 ml of a test solution is added to the culture, and the cells are further incubated and monitored by photomicroscopy to evaluate the closure of the gap created by the scratches. The test solutions compared are 100 ppm Arginine in DMEM medium and untreated DMEM medium. The results are shown in Table 3 below, expressed as the average width of the gap as a percentage of the initial width of the gap (at 0 hours).
A second gap closure experiment is also performed which compares the results obtained when 100 ppm Arginine in DMEM is used against 1:500 v/v dilutions of commercial mouthwash formulations. In one test, a 0.8% w/v arginine mouthwash formulation is used. In a second test, a 0.075% w/v cetylpyridinium chloride (CPC) mouthwash formulation is used as a negative control. CPC is common antibacterial agent and preservative used in oral care products.

[3] = test system: HSP-27; assay: Intracellular HSP 27 expression in scratched keratinocytes (ELISA); type: cell-based, human; details: for HSP-27, intracellular: scratched keratinocytes, 50 ppm Arginine
Protocol: Human keratinocytes are cultured in DMEM medium supplemented with 10% FBS and 1% of antibiotic at 37° C. under a 5% CO2 atmosphere in petri dishes. Once the cells are 80-90% confluent, a scratch is made horizontally and a scratch is made vertically across the layer of cells. […] […] The cell suspension is then homogenized with metal beads for 5 minutes and then analyzed for HSP27 using ELISA. In both untreated and arginine treated cells, scratching induces a strong increase in intracellular HSP-27 expression at one hour which declines at 4 hours. […] Without being bound by theory, Applicants believe that it is this initial burst of HSP-27 expression at the time of physical injury that contributes to improved wound healing.

Structure (SMILES): N=C(N)NCCCC(N)C(=O)O (stereo not shown) [Arginine, 2-amino-5-guanidinopentanoic acid]
- production of HSP 27 compared to the untreated, scratched tissue ([1]; arginine 50 ppm, at 1 hour and at 4 hours): significantly accelerated
- HSP27 concentration ([1]; incubation time 0 hr): 22.78 ng/mL
- HSP27 concentration ([1]; incubation time 1 hr): 218.76 ng/mL
- HSP27 concentration ([1]; incubation time 4 hr): 359.72 ng/mL
- speed of gap closure compared to the DMEM control [2]: significantly faster
- % Gap Closure ([2]; 24 hr after scratch): 21%
- % Gap Closure ([2]; 48 hr after scratch): 63%
- % Gap Closure ([2]; 144 hr after scratch): 100%
- % Gap Closure ([2]; second experiment, 48 hr): 75%
- intracellular HSP-27 expression compared to untreated scratched cells ([3]; 50 ppm arginine): significantly higher expression
- HSP-27, intracellular ([3]; time 0 hr): 17.11 ng/mL
- HSP-27, intracellular ([3]; time 1 hr): 64.04 ng/mL
- HSP-27, intracellular ([3]; time 2 hr as printed in the table): 45.12 ng/mL
